In patent publication US20040266732A1, “Therapeutic agents, methods, and treatments” (priority 2002, published 2004):

Tests used:
Test in all cases: NCI 60 cell-line test
Format in all cases: cell-based, human
[1] = tested on: COLO 205; settings: COLO 205 (Colon Cancer)
Procedure: (§1) Methodology: The NCI conducted a test of the MT103 drug against 60 human cell lines, with a minimum of five concentrations of MT103 at 10-fold dilutions. A 48 hour continuous drug exposure was used, and a sulforhodamine B (SRB) protein assay was used to estimate cell viability and growth. The human tumor cell lines of the cancer screening panel were grown in RPMI 1640 medium containing 5% fetal bovine serum and 2 mM L-glutamine. Cells were inoculated into 96 well microtiter plates in 100 μL at plating densities ranging from 5,000 to 40,000 cells/well depending on the doubling time of individual cell lines. After cell inoculation, the microtiter plates are incubated at 37° C., 5% CO2, 95% air, and 100% relative humidity for 24 h prior to addition of experimental drugs.
(§2) After 24 h, two plates of each cell line were fixed in situ with TCA, to represent a measurement of the cell population for each cell line at the time of drug addition (Tz). MT103 was solubilized in dimethyl sulfoxide at 400-fold the desired final maximum test concentration and stored frozen prior to use. At the time of drug addition, an aliquot of frozen concentrate was thawed and diluted to twice the desired final maximum test concentration with complete medium containing 50 μg/ml gentamicin. Additional four, 10-fold or ½ log serial dilutions were made to provide a total of five drug concentrations plus control. Aliquots of 100 μl of these different drug dilutions were added to the appropriate microtiter wells already containing 100 μl of medium, resulting in the required final drug concentrations.
(§3) Following drug addition, the plates were incubated for an additional 48 h at 37° C., 5% CO2, 95% air, and 100% relative humidity. For adherent cells, the assay was terminated by the addition of cold TCA. Cells were fixed in situ by the gentle addition of 50 μl of cold 50% (w/v) TCA (final concentration, 10% TCA) and incubated for 60 minutes at 4° C. The supernatant was discarded, and the plates were washed five times with tap water and air dried. Sulforhodamine B (SRB) solution (100 μl) at 0.4% (w/v) in 1% acetic acid was added to each well, and plates were incubated for 10 minutes at room temperature. After staining, unbound dye was removed by washing five times with 1% acetic acid and the plates were air-dried. Bound stain was subsequently solubilized with 10 mM trizma base, and the absorbance was read on an automated plate reader at a wavelength of 515 nm. For suspension cells, the methodology was the same except that the assay was terminated by fixing settled cells at the bottom of the wells by gently adding 50 μl of 80% TCA (final concentration, 16% TCA). Using the seven absorbance measurements (time zero, (Tz), control growth, (C), and test growth in the presence of drug at the five concentration levels (Ti)), the percentage growth was calculated at each of the drug concentrations levels. Percentage growth inhibition was calculated as:
(§4) [(Ti-Tz)/(C-Tz)]×100 for concentrations for which Ti>/=Tz
(§5) [(Ti-Tz)/Tz]×100 for concentrations for which Ti<Tz.
(§6) Three dose response parameters were calculated for each experimental agent. Growth inhibition of 50% (GI50) was calculated from [(Ti-Tz)/(C-Tz)]×100=50, which is the drug concentration resulting in a 50% reduction in the net protein increase (as measured by SRB staining) in control cells during the drug incubation. The drug concentration resulting in total growth inhibition (TGI) was calculated from Ti=Tz. The LC50 (concentration of drug resulting in a 50% reduction in the measured protein at the end of the drug treatment as compared to that at the beginning) indicating a net loss of cells following treatment was calculated from [(Ti-Tz)/Tz]×100=−50. Values were calculated for each of these three parameters if the level of activity is reached; however, if the effect was not reached or was exceeded, the value for that parameter was expressed as greater or less than the maximum or minimum concentration tested.

[2] = tested on: HOP-62; settings: HOP-62 (Non-Small Cell Lung Cancer)
Procedure: as §1, §2, §3, §4, §5, §6

[3] = tested on: HOP-92
Procedure: as §1, §2, §3, §4, §5, §6

[4] = tested on: KM12; settings: KM12 (Colon Cancer)
Procedure: as §1, §2, §3, §4, §5, §6

[5] = tested on: MALME-3M; settings: MALME-3M (Melanoma)
Procedure: as §1, §2, §3, §4, §5, §6

[6] = tested on: MOLT-4; settings: MOLT-4 (Leukemia)
Procedure: as §1, §2, §3, §4, §5, §6

[7] = tested on: NCI-H322M; settings: NCI-H322M (Non-Small Cell Lung Cancer)
Procedure: as §1, §2, §3, §4, §5, §6

[8] = tested on: NCI-H522; settings: NCI-H522 (Non-Small Cell Lung Cancer)
Procedure: as §1, §2, §3, §4, §5, §6

[9] = tested on: OVCAR-4; settings: OVCAR-4 (Ovarian Cancer)
Procedure: as §1, §2, §3, §4, §5, §6

[10] = tested on: RPMI-8226; settings: RPMI-8226 (Leukemia)
Procedure: as §1, §2, §3, §4, §5, §6

[11] = tested on: RXF 393; settings: RXF 393 (Renal Cancer)
Procedure: as §1, §2, §3, §4, §5, §6

[12] = tested on: SN12C; settings: SN12C (Renal Cancer)
Procedure: as §1, §2, §3, §4, §5, §6

[13] = tested on: SNB-75; settings: SNB-75 (CNS Cancer)
Procedure: as §1, §2, §3, §4, §5, §6

[14] = tested on: T-47D; settings: T-47D (Breast Cancer)
Procedure: as §1, §2, §3, §4, §5, §6

[15] = read-out: LC50 (the source's name)

CC1(C)C2CC[C@@]1(CS(=O)(=O)N(C1CCCCC1)C1CCCCC1)C(O)C2 (stereo partly shown) [MT103]
TGI [1]: 4.98E−05 | IC50 ([1]; read-out: G150): 21.3 µM | CC50 [1, 15]: > 100 µM | TGI [2]: >1.00E−04 | IC50 ([2]; read-out: G150): 57.5 µM | CC50 [2, 15]: > 100 µM | TGI ([3]; HOP-92 (Non-Small Cell Lung Cancer)): 3.16E−05 | IC50 ([3]; HOP-92 (Non-Small Cell Lung Cancer), read-out: G150): 2.75 µM | CC50 ([3]; HOP-92 (Non-Small Cell Lung Cancer), read-out: LC50 (the source's name)): > 100 µM | −logGI50 value ([3]; HOP-92, as tested by the NCI, FIG. 1): 5.6 | TGI [4]: 9.73E−05 | IC50 ([4]; read-out: G150): 28.4 µM | CC50 [4, 15]: > 100 µM | TGI [5]: 4.44E−05 | IC50 ([5]; read-out: G150): 13.1 µM | CC50 [5, 15]: > 100 µM | TGI [6]: >1.00E−04 | IC50 ([6]; read-out: G150): 20.6 µM | CC50 [6, 15]: > 100 µM | TGI [7]: >1.00E−04 | IC50 ([7]; read-out: G150): 27.3 µM | CC50 [7, 15]: > 100 µM | TGI [8]: 5.50E−05 | IC50 ([8]; read-out: G150): 21.5 µM | CC50 [8, 15]: > 100 µM | TGI [9]: >1.00E−04 | IC50 ([9]; read-out: G150): 30.2 µM | CC50 [9, 15]: > 100 µM | TGI [10]: 3.68E−05 | IC50 ([10]; read-out: G150): 11.8 µM | CC50 [10, 15]: > 100 µM | TGI [11]: 9.77E−05 | IC50 ([11]; read-out: G150): 24.2 µM | CC50 [11, 15]: > 100 µM | TGI [12]: >1.00E−04 | IC50 ([12]; read-out: G150): 33 µM | CC50 [12, 15]: > 100 µM | LC50 (concentration killing 50% of tumour cells) [13]: > 100 µM | TGI [13]: 8.83E−05 | IC50 ([13]; read-out: G150): 19.5 µM | TGI [14]: >1.00E−04 | IC50 ([14]; read-out: G150): 62 µM | CC50 [14, 15]: > 100 µM
